The values below come from ChEMBL document CHEMBL1131789, “Synthesis and anticonvulsant activity of 3-aryl-5H-2,3-benzodiazephine AMPA antagonists” (1999).

Each structure is given as a SMILES string. The source made the active and inactive calls. The rule behind the calls is not given here.

The subject of one experiment is Mus musculus. Nature of the experiment: Ability to abolish the hindlimb tonic extensor components of a maximal electroshock-induced seizure in vivo. The format is functional. A general note: The maximal electroshock test induces tonic seizures with an electrical stimulus.
In general, ED50 refers to the midpoint of the dose-response relation. In turn, `C[C@@H]1Cc2cc3c(cc2C(c2ccc(N)cc2)=NN1c1nncc2ccccc12)OCO3` displayed an ED50 of 7.8 mg/kg.

`C[C@@H]1Cc2cc3c(cc2C(c2ccc(N)cc2)=NN1c1ccccc1)OCO3` showed an ED50 of 1.47 mg/kg.

In the case of `C[C@@H]1Cc2cc3c(cc2C(c2ccc(N)cc2)=NN1c1nc2ccccc2[nH]1)OCO3`, the ED50 amounted to 3.2 mg/kg.

As to `C[C@@H]1Cc2cc3c(cc2C(c2ccc(N)cc2)=NN1c1ccccn1)OCO3`, it took a dose of 0.76 mg/kg to reach the 50% effect level (ED50).

Turning to `C[C@@H]1Cc2cc3c(cc2C(c2ccc(N)cc2)=NN1c1nc2ccccc2s1)OCO3`, the median effective dose (ED50) worked out at 5 mg/kg.

With `CC(=O)N1N=C(c2ccc(N)cc2)c2cc3c(cc2C[C@H]1C)OCO3` [TALAMPANEL], it took a dose of 0.48 mg/kg to reach the 50% effect level (ED50).

In another experiment the test system is Mus musculus. The experiment in a line: Ability to abolish the hindlimb tonic extensor components of a maximal electroshock-induced seizure in vivo; NA means Not active at 10 mg/kg. The format is functional, organism-based. Also noted: dose 10 mg/kg.
As for `C[C@@H]1Cc2cc3c(cc2C(c2ccccc2)=NN1c1ccccn1)OCO3`, the ED50 result was “inactive”.

On to `C[C@@H]1Cc2cc3c(cc2C(c2ccc(Cl)cc2)=NN1c1ccccn1)OCO3`, for which the ED50 result was “inactive”.

With `C[C@@H]1Cc2cc3c(cc2C(c2ccc(N)cc2)=NN1c1cccc2ccccc12)OCO3`, the ED50 result is “inactive”.

Take `C[C@@H]1Cc2cc3c(cc2C(c2ccc(I)cc2)=NN1c1ccccn1)OCO3`: the ED50 entry is “inactive”.

For a further experiment, the system named is Mus musculus. Nature of the experiment: Ability to abolish the hindlimb tonic extensor components of a maximal electroshock-induced seizure in vivo; NA means Not active. The format is functional, organism-based.
Consider `C[C@@H]1Cc2cc3c(cc2C(c2ccc(N)cc2)=NN1c1ccc2ccccc2n1)OCO3`, for which the ED50 result is “inactive”.

As for `C[C@@H]1Cc2cc3c(cc2C(c2ccc(N)cc2)=NN1c1nccc(C(F)(F)F)n1)OCO3`, the ED50 entry is “inactive”.

For another experiment, the system named is Mus musculus. Nature of the experiment: Ability to abolish the hindlimb tonic extensor components of a maximal electroshock-induced seizure in vivo at 10 mg/kg. The format is functional.
On to `C[C@@H]1Cc2cc3c(cc2C(c2ccc(N)cc2)=NN1c1nc2ccccc2s1)OCO3`, for which the Protection is 80%.

For `COC(=O)c1ccsc1N1N=C(c2ccc(N)cc2)c2cc3c(cc2C[C@H]1C)OCO3`, the Protection was found to be 40%.

The next experiment relates to Mus musculus. The experiment in a line: Ability to abolish the hindlimb tonic extensor components of a maximal electroshock-induced seizure in vivo at 5 mg/kg; None mice protected. The format is functional.
`C[C@@H]1Cc2cc3c(cc2C(c2ccc(N)cc2)=NN1c1nc2ccccc2s1)OCO3` showed a Protection of 0%.
